Test results from article PMC9851200, “Multiparameter phenotypic screening for endogenous TFEB and TFE3 translocation identifies novel chemical series modulating lysosome function” (Autophagy, 2022).
“Also recorded” adds a separate entry of the source.

Columns and labels:
[1] = system: endogenous TFE3; experiment: TFE3 nuclear translocation, immunocytochemistry high-content imaging; assay type: cell-based; conditions: for TFE3 %: PKIS2 primary screening
[2] = system: SH-SY5Y cells; conditions: for DQ Intensity / DQ Spot: PKIS2 primary screening; for DQ Intensity: DQ Red BSA intensity; for DQ Spot: DQ Red BSA spot count
Source text: The PKIS2 Library was supplied by The Structural Genomics Consortium at the University of North Carolina at Chapel Hill.

[3] = system: SH-SY5Y cells; experiment: Nuclear count from microscopy images (cellular growth and toxicity); conditions: PKIS2 primary screening
[4] = system: endogenous TFEB; experiment: TFEB nuclear translocation, immunocytochemistry high-content imaging; assay type: cell-based; conditions: for TFEB %: PKIS2 primary screening
[5] = system: SH-SY5Y cells; experiment: AK (adenylate kinase) release ToxiLight cytotoxicity assay; conditions: for AK: PKIS2 primary screening
Procedure: Total cell lysis with 5 µL 5% Triton-X 100 (Sigma-Aldrich, T8787) is used as a positive control for the assay and toxicity is expressed as a percentage of luminescence under DMSO conditions.

[6] = system: SH-SY5Y cells; experiment: Chemotype enrichment analysis of PKIS2 primary screen hit categories; conditions: PKIS2 primary screening, hit category

## CN(C)Cc1ccc(-c2ccc3c(Nc4ccc(Oc5ccccn5)cc4)ccnc3c2)o1 [UNC10225428A]
[1]
  TFE3 %: 34.27%
[2]
  DQ Intensity: 85.61
  DQ Spot: 47.88
[3]
  Nuclear Count: 92.33
[4]
  TFEB %: 28.26%
[5]
  AK: 81.74
[6]
  Outcome: LYSO TOXIC

## CN(C)CCOc1ccc(-c2cc(-c3ccc(Cl)c(O)c3)c(-c3ccncc3)[nH]2)cc1.Cl.Cl [UNC10225395A]
[1]
  TFE3 %: 46.41%
[2]
  DQ Intensity: 71.39
  DQ Spot: 40.46
[3]
  Nuclear Count: 86.70
[4]
  TFEB %: 15.65%
[5]
  AK: 117.96
[6]
  Outcome: LYSO TOXIC

## c1ccc(-c2n[nH]cc2Nc2ccnc3ccccc23)nc1 [UNC10225048A]
[1]
  TFE3 %: 9.11%
[2]
  DQ Intensity: 106.75
  DQ Spot: 56.59
[3]
  Nuclear Count: 152.96
[4]
  TFEB %: 2.79%
[5]
  AK: 99.18
[6]
  Outcome: LYSO TOXIC

## Fc1cccc(COc2ccc(Nc3ncnc4nn5ccccc5c34)cc2Cl)c1 [UNC10225319A]
[1]
  TFE3 %: 21.26%
[2]
  DQ Intensity: 134.45
  DQ Spot: 139.92
[3]
  Nuclear Count: 77.83
[4]
  TFEB %: 3.13%
[5]
  AK: 110.07
[6]
  Outcome: TFE3 + DQ

## Fc1cc(Cl)ccc1Nc1ccnc2cc(I)ccc12 [UNC10225189A]
[1]
  TFE3 %: 9.39%
[2]
  DQ Intensity: 39.14
  DQ Spot: 61.91
[3]
  Nuclear Count: 145.49
[4]
  TFEB %: 3.86%
[5]
  AK: 112.41
[6]
  Outcome: LYSO TOXIC

## CC(C)NCC(Cc1ccccc1)NC(=O)c1cc(Br)c(-c2ccnc3[nH]ccc23)s1.Cl.Cl (stereo not drawn) [UNC10225078A]
[1]
  TFE3 %: 47.42%
[2]
  DQ Intensity: 114.59
  DQ Spot: 48.43
[3]
  Nuclear Count: 95.97
[4]
  TFEB %: 25.83%
[5]
  AK: 109.26
[6]
  Outcome: LYSO TOXIC

## Cc1ccc(O)cc1Nc1ccnc2ccc(C(C)(C)C)cc12 [UNC10225479A]
[1]
  TFE3 %: 19.57%
[2]
  DQ Intensity: 91.49
  DQ Spot: 60.27
[3]
  Nuclear Count: 78.69
[4]
  TFEB %: 23.46%
[5]
  AK: 75.82
[6]
  Outcome: LYSO TOXIC

## COc1ccc(-c2oc3ncnc(N)c3c2-c2ccc(OC)cc2)cc1 [UNC10225431A]
[1]
  TFE3 %: 9.25%
[2]
  DQ Intensity: 144.39
  DQ Spot: 120.26
[3]
  Nuclear Count: 51.87
[4]
  TFEB %: 4.87%
[5]
  AK: 79.67
[6]
  Outcome: DQ Only

## O=C(c1ccc(-c2cc(-c3c[nH]nc3-c3ccccn3)ccn2)cc1)N1CCOCC1 [UNC10225421A]
[1]
  TFE3 %: 13.41%
[2]
  DQ Intensity: 150.15
  DQ Spot: 98.06
[3]
  Nuclear Count: 121.31
[4]
  TFEB %: 4.79%
[5]
  AK: 76.85
[6]
  Outcome: DQ Only

## Nc1nccc2scc(-c3ccc4c(c3)CCN4C(=O)Cc3ccccc3)c12 [UNC10225119A]
[1]
  TFE3 %: 4.70%
[2]
  DQ Intensity: 60.09
  DQ Spot: 72.10
[3]
  Nuclear Count: 119.23
[4]
  TFEB %: 5.51%
[5]
  AK: 128.12
[6]
  Outcome: LYSO TOXIC

## CS(=O)(=O)c1ccc(-c2nc3n(c2-c2ccncc2)CCC3)cc1 [UNC10224995A]
[1]
  TFE3 %: 13.24%
[2]
  DQ Intensity: 130.38
  DQ Spot: 113.84
[3]
  Nuclear Count: 122.53
[4]
  TFEB %: 6.71%
[5]
  AK: 200.60
[6]
  Outcome: TOXIC

## COc1ccc(C[C@@H](CN)NC(=O)c2cc(Br)c(-c3ccnc4[nH]ccc34)s2)cc1.Cl.Cl [UNC10225412A, reference compound]
[1]
  TFE3 %: 22.21%
[1]; SH-SY5Y, 24 h treatment
  TFE3 translocation (in words): strong TFE3 translocation; also recorded: translocation of TFEB and TFE3
[2]
  DQ Intensity: 276.55
  DQ Spot: 119.63
[2]; SH-SY5Y, 24 h treatment
  DQ Red BSA fluorescence intensity (in words): increase in DQ Red BSA fluorescence intensity
  DQ Red BSA spot count / active lysosome count (in words): small reduction in puncta count
[3]
  Nuclear Count: 99.32
[4]
  TFEB %: 17.53%
[4]; SH-SY5Y, 24 h treatment
  TFEB translocation (in words): translocation of TFEB and TFE3
[5]
  AK: 302.26
[5]; SH-SY5Y, 24 h treatment
  Cellular toxicity (AK release and nuclear count, in words): no toxicity; also recorded: without cellular toxicity
[6]
  Outcome: TOXIC

## Fc1cc(Cl)ccc1Nc1ccnc2cc(-c3ccc(CN4CCOCC4)o3)ccc12 [UNC10225106A]
[1]
  TFE3 %: 18.79%
[2]
  DQ Intensity: 127.02
  DQ Spot: 67.74
[3]
  Nuclear Count: 98.32
[4]
  TFEB %: 10.01%
[5]
  AK: 77.69
[6]
  Outcome: LYSO TOXIC

## Nc1ncc(-c2ccc3nccc(-c4ccncc4)c3c2)cc1S(=O)(=O)N1CCOCC1 [UNC10225011A]
[1]
  TFE3 %: 1.48%
[2]
  DQ Intensity: 150.72
  DQ Spot: 94.12
[3]
  Nuclear Count: 96.85
[4]
  TFEB %: 0.58%
[5]
  AK: 92.69
[6]
  Outcome: DQ Only

## COc1cc2ncnc(Nc3ccc4nc(-c5ccccc5)[nH]c4c3)c2cc1OC.Cl [UNC10225504A]
[1]
  TFE3 %: 30.79%
[2]
  DQ Intensity: 98.46
  DQ Spot: 113.89
[3]
  Nuclear Count: 107.73
[4]
  TFEB %: 2.24%
[5]
  AK: 94.98
[6]
  Outcome: TFE3

## CN(C)S(=O)(=O)c1cc(-c2ccc3nccc(-c4cccc(S(N)(=O)=O)c4)c3c2)cnc1N [UNC10225457A]
[1]
  TFE3 %: 3.13%
[2]
  DQ Intensity: 100.41
  DQ Spot: 77.18
[3]
  Nuclear Count: 78.66
[4]
  TFEB %: 2.30%
[5]
  AK: 74.17
[6]
  Outcome: LYSO TOXIC

## Cl.Cl.NC[C@H](Cc1ccc(C(F)(F)F)cc1)NC(=O)c1cc(Br)c(-c2ccnc3[nH]ccc23)s1 [UNC10225108A]
[1]
  TFE3 %: 23.22%
[2]
  DQ Intensity: 147.21
  DQ Spot: 85.33
[3]
  Nuclear Count: 144.66
[4]
  TFEB %: 5.26%
[5]
  AK: 105.44
[6]
  Outcome: TFE3

## Nc1nc(-c2cccnc2)c(-c2ccnc3ccccc23)s1 [UNC10225309A]
[1]
  TFE3 %: 14.98%
[2]
  DQ Intensity: 115.27
  DQ Spot: 134.42
[3]
  Nuclear Count: 71.32
[4]
  TFEB %: 13.96%
[5]
  AK: 67.30
[6]
  Outcome: DQ and TFEB

## Cl.Cl.NC[C@H](CC1CCCCC1)NC(=O)c1cc(Br)c(-c2ccnc3[nH]ccc23)s1 [UNC10225276A]
[1]
  TFE3 %: 33.43%
[2]
  DQ Intensity: 221.52
  DQ Spot: 71.17
[3]
  Nuclear Count: 101.96
[4]
  TFEB %: 12.93%
[5]
  AK: 108.11
[6]
  Outcome: TFEB/3 + DQ Int

## CS(=O)(=O)CCNCc1ccc(-c2ccc3ncnc(Nc4ccc(OCc5ccccc5)c(Cl)c4)c3c2)o1.Cl [UNC10112604A]
[1]
  TFE3 %: 24.66%
[2]
  DQ Intensity: 133.51
  DQ Spot: 89.48
[3]
  Nuclear Count: 96.24
[4]
  TFEB %: 8.74%
[5]
  AK: 78.47
[6]
  Outcome: TFE3

## COc1cc(Nc2ccnc3cc(-c4ccncc4)ccc23)cc(OC)c1OC.Cl [UNC10225049A]
[1]
  TFE3 %: 16.25%
[2]
  DQ Intensity: 164.74
  DQ Spot: 83.88
[3]
  Nuclear Count: 54.75
[4]
  TFEB %: 12.84%
[5]
  AK: 108.07
[6]
  Outcome: DQ Only

## Cl.c1ccc(-c2ccc3c(Nc4ccc5[nH]ncc5c4)ccnc3c2)nc1 [UNC10225007A]
[1]
  TFE3 %: 16.03%
[2]
  DQ Intensity: 77.57
  DQ Spot: 57.65
[3]
  Nuclear Count: 105.78
[4]
  TFEB %: 7.66%
[5]
  AK: 108.57
[6]
  Outcome: LYSO TOXIC
